Values of other authors in patent publication US7416898B2, “Chemiluminescent 1,2-dioxetanes” (priority 2002, dated 2008).

Details: compared with 1,2-dioxetanes (14) and (15)

Question: For `O=C(O)CCCOC1(c2cccc(OP(=O)(O)O)c2)OOC12C1CC3CC(C1)CC2C3` (stereo not shown) [Dioxetane 16], which “solubility in an aqueous system” value is on record?
Answer: more soluble in an aqueous system than 1,2-dioxetane (14) and (15)
